Reference: patent US11111500B2, “Mutated protoporphyrinogen IX oxidase (PPX) genes” (CIBUS US LLC, priority 2010, dated 2021)
Read-outs that look alike come from different tables or passages of the source.

Key:
potato plastidal PPX = assay: Tolerance to flumioxazin of HemG mutant E. coli complemented with potato plastidal PPX (liquid selection, colony count); assay type: cell-based, Solanum tuberosum
Excerpt: StcPPX1, less its chloroplast transit peptide was cloned from cDNA into Cibus' proprietary functional screening vector. This vector may be used both for functional screening, and for GRON QC. The potato PPX genes were used to complement the HemG mutant strain of E. coli, which lacks a functional HemG gene, a bacterial homolog of PPX. Without a complementing gene, the media must be supplemented with hematin for E. coli growth.
In order to assess mutations that confer tolerance to PPX inhibitors such as Chateau (flumioxazin-Valent/Sumitomo), Naja (diphenylether—MAI) or Kixor (saflufenacil—BASF). Pure active ingredients for the PPX inhibiting herbicides Chateau (flumioxazin—Valent/Sumitomo), Spartan (sulfentrazone—FMC) and Kixor/Sharpen (saflufenacil—BASF) were obtained. […]
Liquid culture selection conditions were developed for both sulfentrazone and flumioxazin. […] Spectrophotometric readings (OD600) were taken for each sample (1:4 dilution) and a sample of each plated on LB-Chlor-IPTG plates to determine whether the OD600 correlated with the number of viable colonies. […]
Randomly mutagenized plasmids (5′ and 3′ ends) were transformed into XL1-Blue E. coli cells. […] Colony counts were compared between the two and mutation tolerance determined based on the percentage of colonies on the 0.75 mM sulfentrazone plates as compared with those on the 0 mM plates. […]

[1] = Solubility of herbicide in liquid culture selection media; assay type: physicochemical
Procedure: Liquid culture selection conditions were developed for both sulfentrazone and flumioxazin. Cultures of 1 mL volume were tested with sulfentrazone and flumioxazin concentrations ranging from 0 to 10 mM. The 0 mM samples had 25 μL DMSO (2.5%) to mimic the concentration of DMSO in the samples containing 10 mM herbicide. Each tube was inoculated with 10 μL of an overnight culture of HemG cells complemented with the wildtype PPX plasmid to ensure uniformity. Spectrophotometric readings (OD600) were taken for each sample (1:4 dilution) and a sample of each plated on LB-Chlor-IPTG plates to determine whether the OD600 correlated with the number of viable colonies. A 10% dilution of the overnight culture was plated for the sulfentrazone-treated cells and a 1% dilution for the cells treated with flumioxazin was plated (see results in Tables 8a-f and 9a-d).
Both sulfentrazone and flumioxazin precipitate out in the liquid media, causing it to appear opaque even before inoculating bacteria.

Compound	colony numbers against the WT gene with increasing flumioxazin (potato plastidal PPX; 0 to 10 mM in 1 mL liquid cultures)	growth of the wildtype construct at 10 mM flumioxazin (potato plastidal PPX; 10 mM flumioxazin, liquid selection)	solubility in liquid media ([1]; liquid culture selection media, 0 to 10 mM, DMSO 2.5%)	solubility in liquid media [1]
C#CCN1C(=O)COc2cc(F)c(N3C(=O)C4=C(CCCC4)C3=O)cc21 [flumioxazin]	steadily decreasing colony numbers	limited growth	deficient solubility	
Cc1nn(-c2cc(NS(C)(=O)=O)c(Cl)cc2Cl)c(=O)n1C(F)F [sulfentrazone]				eventually goes into solution
